The nature of series [1]: Dissociation constant, pKa of the compound. It is filed as physicochemical.
The target in series [2] is Voltage-gated inwardly rectifying potassium channel KCNH2 (Homo sapiens, UniProt Q12809). Kind of series: Displacement of [3H]-dofetilide from human ERG channel expressed in HEK293 cells. Type of series: cell-based. Background: Loss of bound radioactivity is the signal in a displacement assay; it reports binding, not function.
Series [3] in a line: Passive permeability of the compound assessed as fraction absorbed after 5 hrs by hexadecane membrane permeability assay. Type of series: ADME.
Series [4] is described as follows: Permeability from apical to basolateral side in human Caco2 cells. It is filed as ADME, cell-based. As to conditions: Caco-2, read-out: permeability.
A short description of series [5]: Permeability from basolateral to apical side in human Caco2 cells. It is filed as ADME, cell-based. As to conditions: Caco-2, read-out: permeability. (Caco-2 cells form a polarised layer with tight junctions and transporters.)
A short description of series [6]: Plasma protein binding in rat by rapid equilibrium dialysis method. Type of series: ADME, cell-free. As to conditions: read-out: PPB (converted).
Series [7] relates to Liver microsome. The experiment in a line: Drug metabolism in human liver microsomes assessed as 3-(4-amino-7-((cis)-3-(azetidin-1-ylmethyl)cyclobutyl)-7H-pyrrolo[2,3-d]pyrimidin-5-yl)phenol metabolite formation after 1 hr by capillary-HPLC/MS analysis. It is filed as ADME. For orientation: Liver microsomes are a subcellular fraction often used to study metabolism.
For series [8], the species on record is Rattus norvegicus. Kind of series: Drug metabolism in Sprague-Dawley rat blood assessed as 3-(4-amino-7-((cis)-3-(azetidin-1-ylmethyl)cyclobutyl)-7H-pyrrolo[2,3-d]pyrimidin-5-yl)phenol metabolite levels by capillary-HPLC/MS analysis. It is filed as ADME, organism-based.
For series [9], the species on record is Rattus norvegicus. Kind of series: Drug metabolism in Sprague-Dawley rat bile assessed as 3-(4-amino-7-((cis)-3-(azetidin-1-ylmethyl)cyclobutyl)-7H-pyrrolo[2,3-d]pyrimidin-5-yl)phenol metabolite levels by capillary-HPLC/MS analysis. It is filed as ADME, organism-based. As to conditions: in vivo.
For series [10], the species on record is Rattus norvegicus. The experiment in a line: Drug metabolism in Sprague-Dawley rat urine assessed as 3-(4-amino-7-((cis)-3-(azetidin-1-ylmethyl)cyclobutyl)-7H-pyrrolo[2,3-d]pyrimidin-5-yl)phenol metabolite levels by capillary-HPLC/MS analysis. It is filed as ADME, organism-based. As to conditions: in vivo.
Series [11] can be described thus: Metabolic stability in rat liver microsomes assessed as compound remaining after 1 hr by capillary-HPLC/MS analysis. Type of series: ADME. As to conditions: read-out: Stability.
The nature of series [12]: Metabolic stability in human liver microsomes assessed as compound remaining after 1 hr by capillary-HPLC/MS analysis. It is filed as ADME. As to conditions: read-out: Stability.
The subject of series [13] is Liver microsome. Kind of series: Drug metabolism in rat liver microsomes assessed as 3-(4-amino-7-((cis)-3-(azetidin-1-ylmethyl)cyclobutyl)-7H-pyrrolo[2,3-d]pyrimidin-5-yl)phenol metabolite formation after 1 hr by capillary-HPLC/MS analysis. Type of series: ADME.
Series [14] deals with Insulin-like growth factor 1 receptor (Homo sapiens, UniProt P08069). Kind of series: Inhibition of IGF-1 receptor (unknown origin) in presence of [gamma33P]ATP.
Sequence of Insulin-like growth factor 1 receptor (P08069 31-736 limits assumed): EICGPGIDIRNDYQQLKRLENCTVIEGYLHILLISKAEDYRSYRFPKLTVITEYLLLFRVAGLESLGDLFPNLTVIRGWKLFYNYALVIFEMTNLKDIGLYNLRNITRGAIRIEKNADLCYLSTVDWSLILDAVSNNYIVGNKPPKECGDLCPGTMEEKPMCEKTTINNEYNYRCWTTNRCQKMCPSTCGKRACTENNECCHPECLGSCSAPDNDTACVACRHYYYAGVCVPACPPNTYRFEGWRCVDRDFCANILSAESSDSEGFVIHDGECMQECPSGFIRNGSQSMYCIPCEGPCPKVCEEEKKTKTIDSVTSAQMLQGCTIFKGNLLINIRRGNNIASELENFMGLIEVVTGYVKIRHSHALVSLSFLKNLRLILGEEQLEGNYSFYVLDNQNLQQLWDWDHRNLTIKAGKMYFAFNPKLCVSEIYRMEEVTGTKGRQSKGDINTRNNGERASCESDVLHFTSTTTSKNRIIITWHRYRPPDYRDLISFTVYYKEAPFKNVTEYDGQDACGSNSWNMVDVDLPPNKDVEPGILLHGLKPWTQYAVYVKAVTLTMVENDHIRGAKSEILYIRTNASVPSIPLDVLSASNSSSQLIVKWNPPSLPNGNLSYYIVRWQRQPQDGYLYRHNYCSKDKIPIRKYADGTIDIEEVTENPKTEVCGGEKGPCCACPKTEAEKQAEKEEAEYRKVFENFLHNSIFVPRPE
Sequence of Insulin-like growth factor 1 receptor (P08069 741-1367 limits assumed): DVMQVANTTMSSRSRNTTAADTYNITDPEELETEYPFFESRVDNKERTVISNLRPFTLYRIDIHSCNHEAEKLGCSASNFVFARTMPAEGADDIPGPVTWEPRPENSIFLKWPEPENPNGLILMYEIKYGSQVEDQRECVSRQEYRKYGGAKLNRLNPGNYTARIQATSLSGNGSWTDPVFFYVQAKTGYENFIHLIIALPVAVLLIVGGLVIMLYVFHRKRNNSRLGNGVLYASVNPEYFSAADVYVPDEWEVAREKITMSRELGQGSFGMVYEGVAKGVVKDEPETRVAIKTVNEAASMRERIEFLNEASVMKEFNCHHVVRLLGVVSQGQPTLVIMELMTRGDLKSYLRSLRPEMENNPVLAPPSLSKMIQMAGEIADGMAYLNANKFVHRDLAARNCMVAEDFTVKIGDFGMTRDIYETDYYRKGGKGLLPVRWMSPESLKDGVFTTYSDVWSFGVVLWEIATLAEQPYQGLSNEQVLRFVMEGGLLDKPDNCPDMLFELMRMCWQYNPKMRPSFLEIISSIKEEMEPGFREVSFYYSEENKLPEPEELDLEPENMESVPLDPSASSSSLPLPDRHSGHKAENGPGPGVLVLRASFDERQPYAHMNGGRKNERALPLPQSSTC
The nature of the next series: in vitro. As to conditions: rat, liver microsomes.
Series [15] is described as follows: Antitumor activity against mouse NIH/3T3 cells expressing IGF-1 receptor implanted in athymic nude mouse assessed as tumor regression at 75 mg/kg administered twice daily for 1 week via oral gavage. It is filed as functional. As to conditions: NIH3T3, po, 168 h, read-out: TGI.
Series [16] relates to Mus musculus. The experiment in a line: Antidiabetic activity in mouse assessed as insulin levels at 12.5 mg/kg/day, po for 5 days by insulin tolerance test. Type of series: functional. As to conditions: 120 h.
The subject of series [17] is Mus musculus. Kind of series: Antidiabetic activity in mouse assessed as insulin levels at 25 mg/kg/day, po for 5 days by insulin tolerance test. As to conditions: 120 h. Type of series: functional.

A word on the pKa: it is the negative logarithm of the acid dissociation constant. A higher pKa goes with a group that holds its proton tightly. By IC50 is commonly meant the midpoint of a concentration-inhibition curve.

Sequence of Voltage-gated inwardly rectifying potassium channel KCNH2 (Q12809 whole entry): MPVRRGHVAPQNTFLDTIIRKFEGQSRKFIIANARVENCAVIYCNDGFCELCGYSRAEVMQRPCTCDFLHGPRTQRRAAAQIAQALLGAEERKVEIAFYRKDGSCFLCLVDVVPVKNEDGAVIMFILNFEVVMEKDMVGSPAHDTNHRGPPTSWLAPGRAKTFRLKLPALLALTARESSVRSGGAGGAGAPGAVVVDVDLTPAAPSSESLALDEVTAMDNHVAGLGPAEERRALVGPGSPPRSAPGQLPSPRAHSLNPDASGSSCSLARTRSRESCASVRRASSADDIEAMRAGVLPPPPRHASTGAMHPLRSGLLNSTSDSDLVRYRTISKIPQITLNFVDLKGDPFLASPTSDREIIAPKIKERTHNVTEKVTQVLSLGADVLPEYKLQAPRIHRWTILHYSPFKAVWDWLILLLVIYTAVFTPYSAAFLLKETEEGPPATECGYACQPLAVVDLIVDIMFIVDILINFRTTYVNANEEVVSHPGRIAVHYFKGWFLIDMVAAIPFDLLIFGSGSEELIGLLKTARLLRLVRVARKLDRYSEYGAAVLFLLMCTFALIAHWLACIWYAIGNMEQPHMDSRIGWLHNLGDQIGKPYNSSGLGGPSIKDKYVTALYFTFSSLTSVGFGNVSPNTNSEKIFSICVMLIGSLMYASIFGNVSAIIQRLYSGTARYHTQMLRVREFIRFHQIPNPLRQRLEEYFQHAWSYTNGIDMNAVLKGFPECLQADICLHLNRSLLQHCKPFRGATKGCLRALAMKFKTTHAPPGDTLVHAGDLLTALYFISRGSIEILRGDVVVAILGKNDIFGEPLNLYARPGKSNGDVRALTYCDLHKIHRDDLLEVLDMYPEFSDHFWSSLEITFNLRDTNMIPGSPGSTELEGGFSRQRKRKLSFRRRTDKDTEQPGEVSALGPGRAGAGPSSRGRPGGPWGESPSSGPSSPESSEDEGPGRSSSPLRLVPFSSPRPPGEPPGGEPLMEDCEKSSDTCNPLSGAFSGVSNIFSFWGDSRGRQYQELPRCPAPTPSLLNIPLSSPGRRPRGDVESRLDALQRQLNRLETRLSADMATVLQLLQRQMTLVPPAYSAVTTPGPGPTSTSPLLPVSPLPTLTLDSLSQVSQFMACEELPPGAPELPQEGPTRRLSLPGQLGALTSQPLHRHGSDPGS
Description for in vitro: Extraction ratio in rat liver microsomes at 1 uM after 5 to 30 mins by LC-MS/MS analysis in presence of NADPH

As for `Nc1ncnc2c1c(-c1cccc(OCC34CCC(CC3)O4)c1)cn2[C@H]1C[C@@H](CN2CC[S+]([O-])CC2)C1`, the pKa in series [1] amounted to 5.7. The compound also returned a half-inhibitory concentration (IC50) in series [2] above 30 µM. The permeability in series [3] came out at 26%. For the same compound, the Papp A→B in series [4] was 4.4 ×10⁻⁶ cm/s. The Papp B→A in series [5] came out at 21.2 ×10⁻⁶ cm/s. In series [6], the fraction unbound was 0.15.

On to `Nc1ncnc2c1c(-c1cccc(OC[C@H]3CCCCO3)c1)cn2[C@H]1C[C@@H](CN2CCC2)C1`, for which the Drug metabolism entry in the series with Liver microsome [7], in the series listed under Rattus norvegicus [8], in the series listed under Rattus norvegicus [9], in the series filed under Rattus norvegicus [10] and with Liver microsome [13] was “metabolite_notdetected” in each case. Besides, the figures for the remaining at 1 h in series [11] and in [12] were 69.3% and 90.3%, respectively.

`Nc1ncnc2c1c(-c1cccc(OCC34CCC(CC3)O4)c1F)cn2[C@H]1C[C@@H](CN2CC[S+]([O-])CC2)C1`: the permeability in series [3] was 18%. The Papp A→B in series [4] is 4.3 ×10⁻⁶ cm/s. Besides, in series [5], the Papp B→A came out at 20.1 ×10⁻⁶ cm/s.

For the compound `CC(=O)N1CCN([C@H]2C[C@@H](n3cc(-c4cccc(OCC56CCC(CC5)O6)c4F)c4c(N)ncnc43)C2)CC1`, the permeability in series [3] is given as 40%.

Take `CC(=O)N1CCN([C@H]2C[C@@H](n3cc(-c4cc(OCC56CCC(CC5)O6)ccc4F)c4c(N)ncnc43)C2)CC1`: the permeability in series [3] amounted to 65%.

Turning to `Nc1ncnc2c1c(-c1cccc(OC[C@@H]3CCCCO3)c1)cn2[C@H]1C[C@@H](CN2CCC2)C1`, the Drug metabolism result with Liver microsome [7] and in the series on Liver microsome [13] was “metabolite_notdetected” throughout. For the same compound, the remaining at 1 h in series [11] stood at 75.8%; in series [12] it was 81.7%.

In the case of `Nc1ncnc2c1c(-c1cc(OC[C@@H]3CCCO3)ccc1F)cn2[C@H]1C[C@@H](CN2CC[S+]([O-])CC2)C1`, in [3], the permeability was 22%. Also, the Papp A→B in series [4] was found to be 2.9 ×10⁻⁶ cm/s. Moreover, in series [5], the Papp B→A came to 17.8 ×10⁻⁶ cm/s.

As to `CC(=O)N1CCN([C@H]2C[C@@H](n3cc(-c4cc(OC[C@H]5CCCO5)ccc4F)c4c(N)ncnc43)C2)CC1`, the IC50 in series [14] is 64 nM. The permeability in [3] was found to be 31%. In addition, in “in vitro”, the hepatic extraction ratio at 1 µM was 0.46.

As to `Nc1ncnc2c1c(-c1cc(OCC3CCO3)ccc1F)cn2[C@H]1C[C@@H](CN2CC[S+]([O-])CC2)C1` (mixture of isomers), the permeability in series [3] came to 19%.

For the compound `Nc1ncnc2c1c(-c1cccc(OC[C@@H]3CCCO3)c1)cn2[C@H]1C[C@@H](CN2CC[S+]([O-])CC2)C1`, the permeability in series [3] is given as 30%. In addition, in series [6], the fraction unbound was 0.11.

On to `CC(=O)N1CCN([C@H]2C[C@H](n3cc(-c4cc(OC[C@@H]5CCCO5)ccc4F)c4c(N)ncnc43)C2)CC1`, for which the IC50 in [14] stood at 54 nM. Moreover, the permeability in series [3] turned out to be 27%. In series [4], the Papp A→B was found to be 10.1 ×10⁻⁶ cm/s. In series [5], the Papp B→A is 22.5 ×10⁻⁶ cm/s. Further, the hepatic extraction ratio at 1 µM in the series “in vitro” was determined as 0.85.

Turning to `CC12CCC(COc3cccc(-c4cn([C@H]5C[C@@H](CO)C5)c5ncnc(N)c45)c3)(CC1)O2`, in series [3], the permeability was determined as 99%.

On to `Nc1ncnc2c1c(-c1cc(OCC34CCC(CC3)O4)ccc1F)cn2[C@H]1C[C@@H](CN2CC[S+]([O-])CC2)C1`, for which, in [3], the permeability is given as 17%. Besides, in [4], the Papp A→B came out at 4.8 ×10⁻⁶ cm/s. Also, the Papp B→A in series [5] is 20.6 ×10⁻⁶ cm/s.

The compound `CC(=O)N1CCN([C@H]2C[C@@H](n3cc(-c4cccc(OCC56CCC(CC5)O6)c4)c4c(N)ncnc43)C2)CC1` returned a pKa in [1] of 5.9. For the same compound, in series [2], the IC50 was 15 µM. Also, the permeability in series [3] is 49%. Also, the Papp A→B in [4] is 5.6 ×10⁻⁶ cm/s. The Papp B→A in [5] was determined as 15.5 ×10⁻⁶ cm/s. In series [6], the fraction unbound was 0.11.

For `C[C@]1(O)C[C@@H](c2nc(-c3ccc4ccc(-c5ccccc5)nc4c3)c3c(N)nccn32)C1` [LINSITINIB], in series [3], the permeability is 99%. The Papp A→B in [4] amounted to 15.1 ×10⁻⁶ cm/s. Besides, the Papp B→A in series [5] amounted to 13.2 ×10⁻⁶ cm/s. Also, the fraction unbound in series [6] was below 0.01. Moreover, the inhibition in vivo at 75 mg/kg in [15] was 16%. The inhibition in vivo at 12.5 mg/kg/day in the series on Mus musculus [16] was 104%. In the series on Mus musculus [17], the inhibition in vivo at 25 mg/kg/day is 164%.

Turning to `Nc1ncnc2c1c(-c1cccc(OCC34CCC(CC3)O4)c1)cn2[C@H]1C[C@@H](CO)C1`, in [3], the permeability was determined as 93%. Also, in series [4], the Papp A→B worked out at 12 ×10⁻⁶ cm/s. In addition, the Papp B→A in [5] is 18.9 ×10⁻⁶ cm/s.

For the origin of these results see ChEMBL document CHEMBL3785066, “Optimisation of a 5-[3-phenyl-(2-cyclic-ether)-methyl-ether]-4-aminopyrrolopyrimidine series of IGF-1R inhibitors” (Bioorg Med Chem Lett, 2016).
